Assay [1] relates to Chinese Hamster Ovary (CHO) cell line genetically engineered to produce huTNFR:Fc. Put plainly: Dose response of vanadate in shake flask cultures (viable cell density, viability). Format: cell-based. Particulars: day 5, shake flask, serum-free medium. As for the experimental part:
In this experiment, the effect of adding various concentrations of vanadate was tested in mammalian cell shake flask cultures. A Chinese Hamster Ovary (CHO) cell line that had been genetically engineered to produce huTNFR:Fc (a soluble form of the human tumor necrosis factor alpha receptor extracellular domain fused to an Fc polypeptide from an immunogolublin see in U.S. Pat. No. 5,945,397) was grown in serum-free medium. A dose response analysis was performed to determine an optimal dose for vanadate.

Assay [2] has as its system Recombinant CHO Cells. Kind of assay: Effect of vanadate and reduced IGF-1 on recombinant CHO cells. It is filed as cell-based, Chinese Hamster. Set-up: cells/ml: scale not given here. As for the experimental part:
(§1) Vanadate can also reduce the requirement for growth factors to maintain recombinant cell viability. […] At 5 ng/L with vanadate, IGF-1 is sufficient to maintain the same viability of recombinant polypeptide producing cells as 100 μg/L IGF-1 in the absence of vanadate.

Assay [3] deals with recombinant cell culture (expressing huTNFR-Fc). Kind of assay: Bioreactor culture (balanced feed experiment) with reduced IGF-1 plus vanadate, FIG. 1. The following applies: 25 µg/L IGF-1 with 20 μM sodium orthovanadate compared to 100 µg/L IGF-1 without vanadate. It is filed as cell-based. Here is the method: FIG. 1. Addition of sodium orthovanadate to a recombinant cell culture (expressing huTNFR-Fc) reduces the requirement for IGF-1 to maintain viability in a balanced feed experiment. […]
as §1
The results from these experiments show how adding vanadate, in this case orthovanadate, can be applied in mammalian cell culture for a number of purposes. Cell viability is increased in cultures having 20 μM orthovanadate compared to cells grown without orthovanadate over a five day period (FIG. 1). In short, adding vanadate, such as orthovanadate, helps to create a more efficient mammalian cell culture process by reducing cell death, reducing the requirement of growth factors in the cell culture and increasing secreted polypeptide production.

The subject of assay [4] is CHO cells expressing huTNFR-Fc. Kind of assay: Cell concentration and viability (hemacytometer, trypan blue dye exclusion) of cultures expressing huTNFR-Fc with inducing agents. The following applies: day 5, 31° C. It is filed as cell-based, Chinese Hamster. As for the experimental part:
(§2) A second experiment was performed to test the effects of sodium orthovanadate on specific production of the recombinant polypeptide huTNFR-Fc, expressed from cells when compared to the same cells grown without vanadate. Flasks were inoculated at 2×10^6 cells/ml and were either grown without additional compounds or with sodium butyrate at 0.5 mM or sodium butyrate with sodium orthovanadate at 20 μM. Flasks were set up in an incubator at 31° C. Measurements for cell concentration and viability were taken using a hemacytometer and the trypan blue dye exclusion method and the results are shown in Table 2. Production of huTNFR-Fc was measured by standard ELISA.

Assay [5] has as its system CHO cells expressing huTNFR-Fc. Kind of assay: Production of huTNFR-Fc measured by standard ELISA. Format: cell-based, Chinese Hamster. Particulars: NaButyrate 0.5 mM, culture without inducing agent normalized to 100%. Here is the method: as §2
In general terms: In an ELISA, binding on a coated surface is turned into a signal by an enzyme label.

Where [6] appears, read: with sodium orthovanadate (+), IGF-1 5 ng/L.
The mark [7] stands for this setting: with sodium orthovanadate (+), IGF-1 100 μg/L.
The mark [8] stands for this setting: IGF-1 5 ng/L, without sodium orthovanadate (−).
Setting [9] is: IGF-1 100 μg/L, without sodium orthovanadate (−).

Several values for one entry are separate records, joined by “and”; a condition that tells them apart may be missing. Equal values may be shown once.

This is an account of results in patent US6974681B1, “Cell culture performance with vanadate” (Immunex Corporation, priority 2002, dated 2005).

On to `[Na+].[Na+].[Na+].[O]=[V]([O-])([O-])[O-]` [Vanadate, sodium orthovanadate], for which the “% Viability” value in assay [1] (10 uM vanadate) is 80% and 89%; in assay [1] (20 uM vanadate), 90%; in assay [1] (35 uM vanadate), 87% and 90%; in assay [1] (50 uM vanadate), 83% and 81%; in assay [4] (sodium butyrate 0.5 mM with sodium orthovanadate 20 μM (0.02 mM)), 95%. Moreover, the “VCD, ×10^6” value was 5.102 ×10^6 and 6.796 ×10^6 in assay [1] (10 uM vanadate); 5.8 ×10^6 in assay [1] (20 uM vanadate); 5.142 ×10^6 and 5.184 ×10^6 in assay [1] (35 uM vanadate); 4.136 ×10^6 and 3.625 ×10^6 in assay [1] (50 uM vanadate). The “% viable” value is recorded as 73% in assay [2] (setting [6]) and 90% in assay [2] (setting [7]). Besides, the figures for the cells/ml in assay [2] (setting [6]) and in assay [2] (setting [7]) were 4.916 cells/ml and 6.806 cells/ml, respectively. In addition, in assay [3] (after four days), the cell viability entry is “improved”. In assay [3] (after six days), the cell survival result was “markedly more cell survival”.

For “IGF-1: insulin like growth factor (IGF-1), growth factor added to the medium”, in assay [2] (setting [8]), the “% viable” value was found to be 58% and the cells/ml is 3.936 cells/ml. Further, in assay [2] (setting [9]), the “% viable” value came out at 74% and the cells/ml worked out at 5.825 cells/ml.

With `CCCC(=O)[O-].[Na+]` [NaButyrate, sodium butyrate], in assay [5], the “Specific Productivity” value was 161% and 153%; the Titer was 140% and 125%. Besides, in assay [4] (NaButyrate 0.5 mM), the “% Viability” value came to 78%; the “VCD, ×10^6” value is 5.547 ×10^6 and 5.067 ×10^6.
